{"source": "patent US8653125B2", "about": "“Cyclohexane derivative having NPY Y5 receptor antagonism” (Shionogi Co., Ltd., priority 2009, dated 2014)"}
{"biological_target": "mouse NPY Y5 receptor (Mus musculus (Mouse), UniProt O70342)", "sequence (O70342 whole entry)": "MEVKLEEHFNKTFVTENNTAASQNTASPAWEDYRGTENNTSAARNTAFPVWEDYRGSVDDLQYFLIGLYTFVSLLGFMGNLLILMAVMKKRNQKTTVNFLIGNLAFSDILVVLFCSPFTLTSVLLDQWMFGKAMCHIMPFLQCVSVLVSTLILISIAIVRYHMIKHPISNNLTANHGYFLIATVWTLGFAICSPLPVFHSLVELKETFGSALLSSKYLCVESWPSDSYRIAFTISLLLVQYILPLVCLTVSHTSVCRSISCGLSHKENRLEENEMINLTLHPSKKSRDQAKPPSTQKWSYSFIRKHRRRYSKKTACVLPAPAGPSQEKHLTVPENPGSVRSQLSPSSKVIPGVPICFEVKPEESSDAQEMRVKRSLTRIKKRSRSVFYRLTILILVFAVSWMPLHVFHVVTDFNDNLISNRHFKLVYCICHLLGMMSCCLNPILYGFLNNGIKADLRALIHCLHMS", "assay": "Affinity for NPY Y5 receptor (Test Example 1-1), 125I peptide YY binding", "conditions": "inhibition of 125I peptide YY binding to membranes of CHO cells expressing mouse NPY Y5 receptor", "source_text": "cDNA sequence encoding mouse NPY Y5 receptor (Biochem. Biophys. Acta 1328: 83-89, 1997) was cloned in the expression vector (pME18S, Takebe et al. Mol. Cell. Biol. 8, 466-472). The obtained expression vector was transfected into CHO cells as a host according to the instruction manual using Lipofectamine reagent (Trademark, Gibco BRL Co., Ltd.). The cells that stably express NPY Y5 receptor were obtained.\nThe membrane samples prepared from the CHO cells expressing NPY Y5 receptor, the compound of the invention and 30,000 cpm ^125I peptide YY (60 pM of final concentration: Amersham) were incubated in the assay buffer (20 mM HEPES-Hanks buffer containing 0.1% bovine serum albumin, pH 7.4) at 25° C. for 2 hours. The membrane samples were then filtered from the mixture through a glassfilter (GF/C) presoaked with 1% polyethyleneimine. After washing with 50 mM Tris-HCl buffer (pH 7.4), radioactivity retained on the filters was determined using gamma counter. Non-specific binding was determined in the presence of 200 nM of peptide YY and the 50% inhibitory concentration (IC50 value) of the test compound for specific peptide YY binding was calculated (Inui, A. et al. Endocrinology 131, 2090-2096 (1992)).", "units": {"IC50": "nM"}}
{"smiles": "O=C(N[C@H]1CC[C@@H](C(=O)Nc2ccn(-c3ccccc3F)n2)CC1)c1cccc(F)n1", "note": "[Ia-2]", "IC50": 1.6}
{"smiles": "O=C(N[C@H]1CC[C@@H](C(=O)Nc2ccn(-c3ccccc3F)n2)CC1)c1cccc(Cl)n1", "note": "[Ia-4]", "IC50": 3.8}
{"smiles": "O=C(N[C@H]1CC[C@@H](C(=O)Nc2cccc(-c3ccccc3F)c2)CC1)c1ccccc1", "note": "[Ia-14]", "IC50": 4.1}
{"smiles": "CC(C)n1c(=O)oc2cc(NC(=O)[C@H]3CC[C@@H](NC(=O)c4ccccc4)CC3)ccc21", "note": "[Ia-15]", "IC50": 4.5}
{"smiles": "N#Cc1ccccc1C(=O)N[C@H]1CC[C@@H](C(=O)Nc2ccn(-c3ccccc3F)n2)CC1", "note": "[Ia-24]", "IC50": 2.9}
{"smiles": "O=C(N[C@H]1CC[C@@H](C(=O)Nc2cccc(-c3ccccc3F)c2)CC1)c1ccon1", "note": "[Ia-28]", "IC50": 4.1}
{"smiles": "O=C(N[C@H]1CC[C@@H](C(=O)Nc2ccc(-c3ccccc3F)cc2)CC1)c1ccon1", "note": "[Ia-30]", "IC50": 0.71}
{"smiles": "CC(C)n1c(=O)oc2cc(NC(=O)[C@H]3CC[C@@H](NC(=O)c4ccon4)CC3)ccc21", "note": "[Ia-32]", "IC50": 3.3}
{"smiles": "O=C(N[C@H]1CC[C@@H](C(=O)Nc2ccc(-c3ccccc3)cc2)CC1)c1ccon1", "note": "[Ia-35]", "IC50": 0.65}
{"smiles": "O=C(N[C@H]1CC[C@@H](c2nc(-c3ccc(Cl)c(Cl)c3)c[nH]2)CC1)c1ccon1", "note": "[Ia-40]", "IC50": 0.26}
{"smiles": "O=C(N[C@H]1CC[C@@H](c2nc(-c3cccc(Cl)c3)c[nH]2)CC1)c1ccon1", "note": "[Ia-42]", "IC50": 3}
{"smiles": "O=C(N[C@H]1CC[C@@H](c2nc(-c3cccc(C(F)(F)F)c3)c[nH]2)CC1)c1ccon1", "note": "[Ia-43]", "IC50": 1.8}
{"smiles": "O=C(Nc1ccn(-c2ccccc2F)n1)[C@H]1CC[C@@H](Nc2cccc(F)n2)CC1", "note": "[Ib-1]", "IC50": 2.9}
{"smiles": "CC(C)n1c(=O)oc2cc(NC(=O)[C@H]3CC[C@@H](Nc4cccc(F)n4)CC3)ccc21", "note": "[Ib-4]", "IC50": 1.5}
{"smiles": "C[C@@H]1CN(c2ccc(NC(=O)[C@H]3CC[C@@H](Oc4cc(Cl)ccn4)CC3)cc2)C[C@H](C)O1", "note": "[Ic-5]", "IC50": 1.5}
{"smiles": "N#Cc1ccccc1O[C@H]1CC[C@@H](C(=O)Nc2ccc(OC(F)F)cc2)CC1", "note": "[Ic-8]", "IC50": 2.3}
{"smiles": "C[C@@H]1CN(c2ccc(NC(=O)[C@H]3CC[C@@H](Oc4cc(C(F)(F)F)ccc4C#N)CC3)cc2)C[C@H](C)O1", "note": "[Ic-11]", "IC50": 1.8}
{"smiles": "C[C@@H]1CN(c2ccc(NC(=O)[C@H]3CC[C@@H](Oc4cc(Cl)ccc4C#N)CC3)cc2)C[C@H](C)O1", "note": "[Ic-12]", "IC50": 1.1}
{"smiles": "CC(C)n1c(=O)oc2cc(NC(=O)[C@H]3CC[C@@H](Oc4cc(Cl)ccc4C#N)CC3)ccc21", "note": "[Ic-13]", "IC50": 0.56}
{"smiles": "CC(C)n1c(=O)oc2cc(NC(=O)[C@H]3CC[C@@H](Oc4cc(C(F)(F)F)ccc4C#N)CC3)ccc21", "note": "[Ic-14]", "IC50": 0.68}
{"smiles": "CC(C)n1c(=O)oc2cc(NC(=O)[C@H]3CC[C@@H](Oc4cc(C(F)(F)F)ccn4)CC3)ccc21", "note": "[Ic-16]", "IC50": 0.41}
{"smiles": "O=C(Nc1ccn(-c2ccccc2F)n1)[C@H]1CC[C@@H](Oc2cc(Cl)ccn2)CC1", "note": "[Ic-17]", "IC50": 0.69}
{"smiles": "O=C(Nc1ccn(-c2ccccc2F)n1)[C@H]1CC[C@@H](N2c3ccccc3OS2(=O)=O)CC1", "note": "[Id-8]", "IC50": 0.58}
